From patent publication US7935670B2, “Hepatitis C virus inhibitors” (Bristol-Myers Squibb Company, priority 2006, dated 2011)

Assays:
[1] = biological target: T1, HCV NS3/4A protease complex, J4L6S strain (Hepatitis C virus genotype 1b, UniProt O92972, C1454S/C1711G); assay: FRET peptide assay to monitor HCV NS3/4A proteolytic activity (J4L6S strain); type: biochemical, HCV genotype 1b
T1 construct: DNA encoding the recombinant HCV NS3/4A protease complex (amino acids 1027 to 1711) for these strains; His tag (inferred from pET21b vector and Ni-NTA purification); made in house; host or cells: Escherichia coli BL21 (DE3), pET21b
From the text: (§1) HCV NS3 protease complexes, derived from the BMS strain, H77 strain or J4L6S strain, were generated, as described below. These purified recombinant proteins were generated for use in a homogeneous assay (see below) to provide an indication of how effective compounds of the present disclosure would be in inhibiting HCV NS3 proteolytic activity.
(§2) Serum from an HCV-infected patient was obtained from Dr. T. Wright, San Francisco Hospital. An engineered full-length cDNA (compliment deoxyribonucleic acid) template of the HCV genome (BMS strain) was constructed from DNA fragments obtained by reverse transcription-PCR(RT-PCR) of serum RNA (ribonucleic acid) and using primers selected on the basis of homology between other genotype 1a strains. From the determination of the entire genome sequence, a genotype 1a was assigned to the HCV isolate according to the classification of Simmonds et al. (See P Simmonds, K A Rose, S Graham, S W Chan, F McOmish, B C Dow, E A Follett, P L Yap and H Marsden, J. Clin. Microbiol., 31(6), 1493-1503 (1993)). […]

[2] = biological target: T2, HCV NS3/4A protease complex, H77 strain (Hepatitis C virus genotype 1a, UniProt P27958, C1454S/C1711G); assay: FRET peptide assay to monitor HCV NS3/4A proteolytic activity (H77 strain); type: biochemical, HCV genotype 1a
T2 construct: DNA encoding the recombinant HCV NS3/4A protease complex (amino acids 1027 to 1711) for these strains; His tag (inferred from pET21b vector and Ni-NTA purification); made in house; host or cells: Escherichia coli BL21 (DE3), pET21b
From the text: as §1, §2

T1 sequence (O92972 1027-1711 C1454S/C1711G, one chain of several): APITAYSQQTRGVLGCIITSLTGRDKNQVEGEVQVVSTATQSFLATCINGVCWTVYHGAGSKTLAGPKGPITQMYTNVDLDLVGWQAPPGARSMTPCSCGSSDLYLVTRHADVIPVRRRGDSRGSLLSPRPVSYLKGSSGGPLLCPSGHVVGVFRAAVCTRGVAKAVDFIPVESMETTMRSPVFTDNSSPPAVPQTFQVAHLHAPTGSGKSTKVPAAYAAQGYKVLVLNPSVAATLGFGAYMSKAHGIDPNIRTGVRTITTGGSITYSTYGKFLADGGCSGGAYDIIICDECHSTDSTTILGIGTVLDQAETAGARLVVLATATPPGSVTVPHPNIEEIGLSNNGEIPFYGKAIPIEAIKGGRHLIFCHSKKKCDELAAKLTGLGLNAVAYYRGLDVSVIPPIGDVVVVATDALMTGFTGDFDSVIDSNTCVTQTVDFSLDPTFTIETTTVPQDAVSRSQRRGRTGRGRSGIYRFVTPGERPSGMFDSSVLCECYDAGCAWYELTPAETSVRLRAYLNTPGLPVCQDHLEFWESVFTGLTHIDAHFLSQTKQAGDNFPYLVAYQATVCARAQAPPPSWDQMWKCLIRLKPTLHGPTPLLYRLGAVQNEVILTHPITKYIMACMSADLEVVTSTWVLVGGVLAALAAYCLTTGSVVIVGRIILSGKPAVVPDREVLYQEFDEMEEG
T2 sequence (P27958 1027-1711 C1454S/C1711G, one chain of several): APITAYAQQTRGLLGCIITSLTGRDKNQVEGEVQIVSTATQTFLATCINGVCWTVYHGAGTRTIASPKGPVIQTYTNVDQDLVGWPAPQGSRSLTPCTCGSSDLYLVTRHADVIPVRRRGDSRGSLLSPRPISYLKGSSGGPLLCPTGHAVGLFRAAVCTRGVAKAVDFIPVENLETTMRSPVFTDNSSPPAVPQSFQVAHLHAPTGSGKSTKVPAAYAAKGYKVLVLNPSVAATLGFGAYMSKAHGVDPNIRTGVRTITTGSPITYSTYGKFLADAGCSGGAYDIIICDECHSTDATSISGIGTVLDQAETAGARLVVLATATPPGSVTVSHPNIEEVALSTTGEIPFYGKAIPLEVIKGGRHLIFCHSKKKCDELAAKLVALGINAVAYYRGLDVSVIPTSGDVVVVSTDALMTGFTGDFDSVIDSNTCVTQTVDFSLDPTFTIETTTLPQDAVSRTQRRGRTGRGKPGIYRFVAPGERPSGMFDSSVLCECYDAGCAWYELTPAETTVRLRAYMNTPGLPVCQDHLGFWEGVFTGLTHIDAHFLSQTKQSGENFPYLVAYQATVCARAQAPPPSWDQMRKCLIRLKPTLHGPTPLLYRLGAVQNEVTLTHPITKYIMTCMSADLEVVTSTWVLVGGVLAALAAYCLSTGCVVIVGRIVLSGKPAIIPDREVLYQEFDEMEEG

C=C[C@@H]1C[C@]1(NC(=O)[C@@H]1C[C@@H](OC(=O)c2ccccc2)CN1C(=O)[C@@H](NC(=O)OC(C)(C)C)C(C)(C)C)C(=O)NS(=O)(=O)C1CC1 [Compound 1]
IC50 [1]: 2.5 nM
IC50 [2]: 6 nM
